In ChEMBL document CHEMBL4725395, “Lipoic acid modified antimicrobial peptide with enhanced antimicrobial properties” (Bioorg Med Chem, 2020):
In brackets after ≈: the same amount, converted by molar mass. Activity calls are given as the source filed them. The rule behind the calls is not given here. Residues, ends and D or L forms follow the SMILES beside them. ξ: configuration not given here. *: point of attachment. Lipoyl(6ξ) = O=C(CCCCC1CCSS1)*

Columns and labels:
[1] = system: Cell membrane; test: Induction of cytoplasmic membrane depolarization in Kcl - treated Escherichia coli DC2 assessed as increase in fluorescence intensity for a period of 600 sec by diSC3-5 dye based fluorescence microplate reader assay
[2] = system: Pseudomonas aeruginosa; test: Antimicrobial activity against Pseudomonas aeruginosa ATCC 27853 assessed as inhibition of visible growth incubated for 24 hrs; type: functional
[3] = system: Staphylococcus aureus; test: Antimicrobial activity against Staphylococcus aureus ATCC 29213 assessed as inhibition of visible growth incubated for 24 hrs; type: functional
[4] = Cytotoxicity against mouse L929 cells assessed as cell viability at 8 or 16 ug/ml after 24 hrs by MTT assay relative to control; type: cell-based; conditions: dose 8-16 µg/ml, read-out: Activity
[5] = system: Escherichia coli; test: Antimicrobial activity against Escherichia coli ATCC 25922 assessed as inhibition of visible growth incubated for 24 hrs; type: functional
[6] = Hemolytic activity against Erythrocyte (unknown origin) at 4 ug/ml measured after 4 hrs by microplate reader analysis relative to control; type: ADME, cell-based; conditions: human, erythrocytes, at 4 µg/mL, read-out: Activity
[7] = system: Staphylococcus aureus; test: Antibiofilm activity against 48 hrs pre-formed biofilm of Staphylococcus aureus ATCC 29213 assessed as reduction in biofilm viability at 64 ug/ml after 5 hrs relative to control; type: functional; conditions: dose 64 µg/ml
[8] = system: Pseudomonas aeruginosa; test: Antimicrobial activity against Pseudomonas aeruginosa ATCC 27853 by measuring turbidity after 16 hrs; type: functional
[9] = system: Staphylococcus aureus; test: Antimicrobial activity against methicillin-resistant Staphylococcus aureus ATCC 43300 by measuring turbidity after 16 hrs; type: functional
[10] = Cytotoxicity against mouse L929 cells assessed as cell viability at 128 ug/ml after 24 hrs by MTT assay relative to control; type: cell-based; conditions: at 128 µg/mL, read-out: Activity
[11] = system: Cell membrane; test: Induction of cell membrane damage in Escherichia coli ATCC 25922 assessed as leakage of cellular components at 16 ug/ml after 30 mins by transmission electron microscopy; type: subcellular; conditions: dose 16.0 µg/ml
[12] = Hemolytic activity against Erythrocyte (unknown origin) at 16 ug/ml measured after 4 hrs by microplate reader analysis relative to control; type: ADME, cell-based; conditions: human, erythrocytes, at 16 µg/mL, read-out: Activity
[13] = system: Staphylococcus epidermidis; test: Antimicrobial activity against Staphylococcus epidermidis ATCC 14990 by measuring turbidity after 16 hrs; type: functional
[14] = system: Staphylococcus epidermidis; test: Antimicrobial activity against Staphylococcus epidermidis ATCC 14990 assessed as inhibition of visible growth incubated for 24 hrs; type: functional
[15] = system: Cell membrane; test: Induction of cell membrane damage in methicillin-resistant Staphylococcus aureus ATCC 43300 assessed as leakage of cellular components at 16 ug/ml after 30 mins by transmission electron microscopy; type: subcellular; conditions: dose 16.0 µg/ml
[16] = system: Staphylococcus aureus; test: Antimicrobial activity against Staphylococcus aureus ATCC 29213 by measuring turbidity at 540 nm OD after 16 hrs; type: functional
[17] = system: Escherichia coli; test: Antimicrobial activity against Escherichia coli ATCC 25922 by measuring turbidity after 16 hrs; type: functional
[18] = system: Staphylococcus aureus; test: Antimicrobial activity against methicillin-resistant Staphylococcus aureus ATCC 43300 assessed as inhibition of visible growth incubated for 24 hrs; type: functional
[19] = system: Staphylococcus aureus; test: Antibiofilm activity against 48 hrs preformed biofilm of methicillin resistant Staphylococcus aureus ATCC 43300 assessed as reduction in biofilm viability at 128 ug/ml after 5 hrs relative to control; type: functional; conditions: dose 128 µg/ml
[20] = Cytotoxicity against mouse L929 cells assessed as cell viability at 32 ug/ml after 24 hrs by MTT assay relative to control; type: cell-based; conditions: at 32 µg/mL, read-out: Activity
[21] = system: Staphylococcus aureus; test: Antibiofilm activity against Staphylococcus aureus ATCC 29213 assessed as inhibition of biofilm formation at 64 ug/ml after 48 hrs by crystal violet staining based assay relative to control; type: functional; set-up: scale not given: the % may be the effect or the level left; conditions: dose 64 µg/ml
[22] = system: Staphylococcus aureus; test: Bactericidal activity against planktonic phase of methicillin-resistant Staphylococcus aureus ATCC 43300 assessed as log reduction in bacterial colony forming units at 8 ug/ml incubated for 15 mins followed by plating on agar plate and measured after overnight incubation by time-kill kinetic assay relative to control; type: functional; set-up: scale not given: the % may be the effect or the level left; conditions: dose 8 µg/ml, 0.25 h
[23] = system: Staphylococcus aureus; test: Antibiofilm activity against Staphylococcus aureus ATCC 29213 assessed as dead bacteria at 64 ug/ml incubated for 5 hrs by live/dead staining based confocal laser scanning microscopy; type: functional, organism-based; conditions: dose 64.0 µg/ml
[24] = system: Cell membrane; test: Induction of outer membrane permeabilization in Escherichia coli ATCC 25922 assessed as increase in fluorescence intensity at 4 ug/ml after 100 sec by NPN-dye based assay; type: subcellular; conditions: dose 4.0 µg/ml
[25] = system: Staphylococcus aureus; test: Antibiofilm activity against methicillin resistant Staphylococcus aureus ATCC 43300 assessed as inhibition of biofilm formation at 64 ug/ml after 48 hrs by crystal violet staining based assay relative to control; type: functional; set-up: scale not given: the % may be the effect or the level left; conditions: dose 64 µg/ml
[26] = system: Staphylococcus aureus; test: Bactericidal activity against planktonic phase of Staphylococcus aureus ATCC 29213 assessed as log reduction in bacterial colony forming units at 2 ug/ml incubated for 15 mins followed by plating on agar plate and measured after overnight incubation by time-kill kinetic assay relative to control; type: functional; set-up: scale not given: the % may be the effect or the level left; conditions: dose 2 µg/ml, 0.25 h
[27] = Cytotoxicity against mouse L929 cells assessed as cell viability at 64 ug/ml after 24 hrs by MTT assay relative to control; type: cell-based; conditions: at 64 µg/mL, read-out: Activity
[28] = system: Staphylococcus aureus; test: Antibiofilm activity against methicillin-resistant Staphylococcus aureus ATCC 43300 assessed as dead bacteria at 64 ug/ml incubated for 5 hrs by live/dead staining based confocal laser scanning microscopy; type: functional, organism-based; conditions: dose 64.0 µg/ml

Row | Compound | Activity [1] | MBC [2] | MBC [3] | viability at 24 h [4] | MBC [5] | hemolysis at 4 h, 4 ug/ml [6] | Activity [7] | MIC [8] | MIC [9] | viability at 24 h, 128 ug/ml [10] | Activity [11] | hemolysis at 4 h, 16 ug/ml [12] | MIC [13] | MBC [14] | Activity [15] | MIC [16] | MIC [17] | MBC [18] | Activity [19] | also measured
1 | H-RIWVIWRR-NH2 | Dose-dependent effect | 4 µg/mL | 4 µg/mL | 100% | 4 µg/mL | 1.21% | 45% | 4 µg/mL | 8 µg/mL | 85.7% | Active | 3.47% | 4 µg/mL | 4 µg/mL | Active | 2 µg/mL | 4 µg/mL | 16 µg/mL | 40.2% | 
2 | CC[C@H](C)[C@H](NC(=O)[C@H](CCCNC(=N)N)NC(=O)CCCCC1CCSS1)C(=O)N[C@@H](Cc1c[nH]c2ccccc12)C(=O)N[C@H](C(=O)N[C@H](C(=O)N[C@@H](Cc1c[nH]c2ccccc12)C(=O)N[C@@H](CCCNC(=N)N)C(=O)N[C@@H](CCCNC(=N)N)C(N)=O)[C@@H](C)CC)C(C)C (some centres not stated) ({Lipoyl(6ξ)}-RIWVIWRR-NH2) | Dose-dependent effect | 8 µg/mL (≈ 5.83 µM) | 2 µg/mL (≈ 1.46 µM) | 100% | 8 µg/mL (≈ 5.83 µM) | 0.97% | 60% | 8 µg/mL (≈ 5.83 µM) | 4 µg/mL (≈ 2.92 µM) | 80.1% | Active | 4.58% | 8 µg/mL (≈ 5.83 µM) | 8 µg/mL (≈ 5.83 µM) | Active | 1 µg/mL (≈ 0.729 µM) | 8 µg/mL (≈ 5.83 µM) | 8 µg/mL (≈ 5.83 µM) | 36.4% | viability at 24 h, 32 ug/ml [20]: 89.4%; Activity [21]: 12%; Activity [22]: 99%; Activity [23]: Active; Activity [24]: Active; Activity [25]: 25.6%; Activity [26]: 99%; viability at 24 h, 64 ug/ml [27]: 84.9%; Activity [28]: Active
